Test results: article PMC12162873, “Modulating phosphatase DUSP22 with BML-260 ameliorates skeletal muscle wasting via Akt independent JNK-FOXO3a repression” (EMBO Molecular Medicine, 2025)

Tests used:
C2C12 myotubes [1] = experiment: SUnSET assay of protein synthesis; format: cell-based, mouse; details: 10 μM Dex 24 h, 12.5 μM BML-260
Description: The surface sensing of translation (SUnSET) assay was used to measured protein synthesis, in accordance with the published protocol (Vinel et al, [2018]). In brief, 1 μg/mL puromycin was added to the myotube cultures and cell lysates were then harvested 10 min later. Western blotting was carried out using an anti-puromycin 12D10 antibody (MABE343; Millipore).

C2C12 myotubes [2] = experiment: Western blotting of C2C12 myotubes; format: cell-based, mouse
Description: C2C12 murine skeletal muscle myoblasts were purchased from Koram Biotech Corp. (Seoul, Republic of Korea). Prior to experiments, mycoplasma contamination was eliminated using the MycoXpert Mycoplasma Removal Reagent (MYX-B, CAPRICORN) following the manufacturer’s protocol. To ensure complete removal, all cells were passaged three times after treatment before being used in subsequent experiments. No STR profiling was recently undertaken. Myoblasts were cultured in growth media (GM), containing Dulbecco’s modified Eagle’s medium (DMEM), 10% fetal bovine serum, and 1% penicillin and streptomycin (PenStrep). C2C12 myoblasts were differentiated into myotubes at more than 80% confluence by culture in differentiation media (DM), containing DMEM supplemented with 2% horse serum and PenStrep, for 96 h. To induce atrophy, the myotubes were treated with DM plus 10 μM Dex for 24 h. BML-260 and SP600125 were purchased from Santa Cruz Biotechnology, TX, USA (cat. no. sc-223822 and sc-200635).
Western blotting was carried out using the previously published protocol (Lee et al, [2020]). The NIH imaging software Image J 64 was used for densitometry analysis of the gel bands. The primary and secondary antibodies used in this study are shown in the reagent and tools table. Chemiluminescence was used to detect the secondary antibody. […]

human skeletal myotubes = experiment: Dex-induced atrophy of human donor skeletal myotubes, myotube diameter; format: cell-based; details: 10 μM Dex and 12.5 μM BML-260 for 24 h
Text: Figure 9 DUSP22 targeting downregulates atrogene expression in immobilized skeletal muscle and inhibits atrophy in human donor myotubes. (A) Effect of immobilization on skeletal muscle mass using the plastic EP tube method (n = 3). (B) qPCR analysis of DUSP22 expression in the TA muscle (IM = immobilized) (n = 3) (p = 0.018). (C) Plot of DUSP22 expression in relation to TA mass (n = 6). (D) Western blot analysis of DUSP22 expression (n = 3) (p = 0.1699). (E) TA mass (n = 9,7) (p = (Sham = <0.0001, BML-260 = 0.007)). […] Quantification of atrogin-1, MuRF-1, and DUSP22 levels relative to GAPDH are also shown. […]
Human skeletal myoblasts were purchased from Thermo-Fisher Scientific, USA, re-suspended in DM and seeded onto 12-well culture plates at a density of 4.8 × 10^4 cells/well. 72 h later, the differentiated myotubes were treated with 10 μM Dex for 24 h, stained with haematoxylin and eosin (H&E) using a kit (Merck, Germany) and myotube diameter measured by light microscopy analysis of DIC captured images (Olympus CKX41, Olympus Life Science, Japan) and the NIH imaging software Image J 64 (National Institutes of Health, MD, USA). At least 80 myotubes in 5 micrographs were measured in each experimental group.

[3] = parameters: method as in ref [9] Feng et al, 2019; details: pH range 3 to 7.4, HPLC; ref [9] Feng et al, 2019; cited from earlier work

## O=C(O)c1ccc(N2C(=O)C(=Cc3ccccc3)SC2=S)cc1 (stereo in doubt) [BML-260]
C2C12 myotubes [1]
  protein synthesis (puromycin incorporation): prevented the reduction in protein synthesis
C2C12 myotubes [2]; Dex-treated myotubes
  atrogin-1, MuRF-1 and DUSP22 levels, western blot: reduced
C2C12 myotubes [2]; summary statement of the discussion
  Akt activity: not upregulated
Human skeletal myotubes
  mean myotube diameter: recovered the mean myotube diameter
[3]
  stability at pH values within normal physiological conditions: predicted to be stable
